The text below walks through data of ChEMBL document CHEMBL4354831, “Novel Cell-Penetrating Peptide Conjugated Proteasome Inhibitors: Anticancer and Antifungal Investigations” (J Med Chem, 2020).

pIC50: −log10 of the molar value. In brackets after ≈: the same amount, converted by molar mass. Activity calls are given as the source filed them. The rule behind the calls is not given here. Peptide text beside a SMILES is read from it.

Assay [1] concerns Candida albicans. As to the kind of experiment: Induction of hyphal disruption in Candida albicans SC5314 by SEM analysis. The class given is organism-based. The conditions noted are these: Hyphae.
Assay [2] concerns Candida albicans. As to the kind of experiment: Induction of pore formation in Candida albicans SC5314 membrane by SEM analysis. The class given is organism-based. As to conditions: Cell membrane.
The subject of assay [3] is Candida albicans. As to the kind of experiment: Antifungal activity against Candida albicans SC5314 after 48 hrs. The class given is functional. The conditions noted are these: SC5314, 48 h.
Assay [4] deals with BE(2)-C. Briefly: Antiproliferative activity against human BE(2)-C cells assessed as reduction in cell viability after 48 hrs by MTT assay. The class given is functional, cell-based. On the technique in general: Formazan colour is commonly taken as a measure of viable cells.
Another assay deals with 20S proteasome. Briefly: Inhibition of human 20S proteasome using Suc-LLVY-AMC as substrate measured every 5 mins for 120 mins by fluorescence based assay. The class given is protein-complex assay.
Assay [5] in a line: Selectivity ratio of IC50 for antiproliferative activity against human BE(2)-C cells to IC50 for antiproliferative activity against human HeLa cells after 48 hrs by MTT assay. The class given is functional.
For assay [6], the system named is HeLa. As to the kind of experiment: Antiproliferative activity against human HeLa cells assessed as reduction in cell viability after 48 hrs by MTT assay. The class given is functional, cell-based.
In assay [7] the test system is BE(2)-C. Briefly: Induction of membrane blebbing in human BE(2)-C cells at 2xIC50 after 12 hrs by SEM analysis. The class given is cell-based. As to conditions: Cell membrane.
Assay [8] relates to HeLa. As to the kind of experiment: Induction of membrane blebbing in human HeLa cells at 2xIC50 after 12 hrs by SEM analysis. The class given is cell-based. As to conditions: Cell membrane.
The test system of assay [9] is HeLa. As to the kind of experiment: Antiproliferative activity against human HeLa cells assessed as reduction in cell viability at 1000 uM after 48 hrs by MTT assay relative to control. The class given is functional.
Assay [10] has as its system BE(2)-C. Briefly: Induction of pore formation in human BE(2)-C cell membrane at 2xIC50 after 12 hrs by SEM analysis. The class given is functional, cell-based.
For assay [11], the system named is Candida albicans. As to the kind of experiment: Antifungal activity against Candida albicans SC5314 at 100 uM after 48 hrs. The class given is functional, organism-based.
The test system of assay [12] is BE(2)-C. Briefly: Antiproliferative activity against human BE(2)-C cells assessed as reduction in cell viability at 1000 uM after 48 hrs by MTT assay relative to control. The class given is functional.
Assay [13] has as its system HeLa. As to the kind of experiment: Induction of pore formation in human HeLa cell membrane at 2xIC50 after 12 hrs by SEM analysis. The class given is cell-based.

As usually defined, the MIC is the least concentration at which growth counts as inhibited. A high value points to weaker potency. As usually defined, the pIC50 is −log10 of the IC50, conventionally taken in molar units. By inhibition is commonly meant the drop in the measured response relative to a control, in per cent.

For the compound `C[C@@H]1[C@H](O)[C@@H](C)/C=C/C=C/C=C/C=C/C=C/C=C/C=C/[C@H](O[C@@H]2O[C@H](C)[C@@H](O)[C@H](N)[C@@H]2O)C[C@@H]2O[C@](O)(C[C@@H](O)C[C@@H](O)[C@H](O)CC[C@@H](O)C[C@@H](O)CC(=O)O[C@H]1C)C[C@H](O)[C@H]2C(=O)O` [AMPHOTERICIN B], in the assay with Candida albicans [1], the result was inactive. Further, in the assay on Candida albicans [2], the outcome was Active. Moreover, in the assay with Candida albicans [3], the minimal inhibitory concentration (MIC) was 1.56 µM (≈ 1.44 µg/mL).
In the case of `CC(=O)N[C@@H](Cc1ccc(O)cc1)C(=O)N[C@@H](CC(C)C)C(=O)N[C@@H](Cc1ccccc1)C(=O)N[C@H](C=O)CC(C)C` (Ac-YLFL-aldehyde), the results for the pIC50 with BE(2)-C [4], against 20S proteasome and in the assay with HeLa [6] were 4.36, 8.19 and 4.53, respectively. In addition, the “Ratio IC50” value in assay [5] was found to be 1.5. Besides, the minimal inhibitory concentration (MIC) in the assay on Candida albicans [3] was more than 100 µM.
Taken in the same sequence, the figures for `CC(=O)N[C@@H](CC(C)C)C(=O)N[C@@H](CC(C)C)C(=O)N[C@H](C=O)CC(C)C` (Ac-Leu-Leu-Leu-aldehyde) were 4.21, 6.87, 4.41, 1.5 and more than 100 µM.
Consider `CC(=O)N[C@@H](Cc1ccc(O)cc1)C(=O)NCC(=O)N[C@@H](CCCNC(=N)N)C(=O)N[C@@H](CCCCN)C(=O)N[C@@H](CCCCN)C(=O)N[C@@H](CCCNC(=N)N)C(=O)N[C@@H](CCCNC(=N)N)C(=O)N[C@@H](CCC(N)=O)C(=O)N[C@@H](CCCNC(=N)N)C(=O)N[C@@H](CCCNC(=N)N)C(=O)N[C@@H](CCCNC(=N)N)C(=O)O`, for which the pIC50 in the assay with BE(2)-C [4] is 4.03; in the assay with HeLa [6] it was 4.20. Moreover, the outcome with BE(2)-C [7], in the assay on HeLa [8], with BE(2)-C [10], in the assay on Candida albicans [11] and in the assay on HeLa [13] was inactive. Moreover, the inhibition at 1000 µM in the assay on HeLa [9] and in the assay on BE(2)-C [12] was 70% in each case.
